PubChem BioAssay (NCI)
Where “and” joins values, the source holds several entries; their conditions need not be identical. Identical values can stand only once.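 Step 1: Grow cells in 96-well plates. Step 2: Expose to compound for 48 hours at 5 concentrations. Step 3: Interpolate endpoints linearly; if unreached, use highest concentration. GI50: concentration for 50% inhibition of growth. TGI denotes the concentration required for complete inhibition of growth.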 *1 amine or outer side, *2 acyl side, *3 side chain or, on linkers, in order; H or OH if unused. Where a SMILES comes first, the peptide text is derived from it. Bridges are numbered along the chain shown (N, C = ends). Roman numbers before positions name the chains, in order. X23 = CCCCCCCCCCCCCCC(=O)NC(CCCCN[*:2])C(=O)CN1CCCC1C(=O)[*:1]

Legend:
Assay in all cases: NCI anticancer screen, dose series, 48 h
[1] = tested on: SNB-75 CNS
[2] = tested on: UACC-257 melanoma
[3] = tested on: SN12C renal
[4] = tested on: MALME-3M melanoma
[5] = tested on: OVCAR-4 ovarian
[6] = tested on: HOP-92 NSCLC
[7] = tested on: A498 renal
[8] = tested on: M14 melanoma
[9] = tested on: NCI/ADR-RES ovarian
[10] = tested on: MCF7 breast

Row | Compound | TGI [1] [µM] | TGI [2] [µM] | TGI [3] | TGI [4] [µM] | TGI [5] | TGI [6] [µM] | TGI [7] [µM] | TGI [8] [µM] | GI50 [1] | GI50 [2] | GI50 [3] [nM] | GI50 [5] [µM] | GI50 [6] | GI50 [8] [µM] | TGI [9] [µM] | TGI [10] [µM] | GI50 [7] | GI50 [9] [µM] | GI50 [10] [µM]
1 | O=C1NC2(NC(=O)C1=O)Nc1ccccc1S2 | > 100 | > 100 | > 61.4 µM | > 100 | > 100 µM | > 100 | > 100 | > 100 | – | – | – | – | – | – | – | – | – | – | –
2 | Nc1nccc2c1ncn2C1C=C(CO)C(O)C1O (stereo not given) | > 1000 | > 1000 | > 1000 µM | – | > 1000 µM | > 1000 | – | > 1000 | > 1000 µM | 3.28 µM | 351 | > 1000 | > 1000 µM | 7.18 | – | – | – | – | –
3 | Cc1ccc([S+](c2ccccc2)c2cc(C)ccc2C)cc1 (stereo not given) | 2.9 | > 100 | 46.3 µM | > 100 | > 100 µM | – | 32.1 | > 100 | – | – | – | – | – | – | – | – | – | – | –
4 | O=[P+](O)c1cccs1 | – | – | > 100 µM | – | – | > 100 | > 100 | > 100 | – | – | – | – | – | – | – | – | – | – | –
5 | Oc1ccc(NCc2cc(O)ccc2O)cc1 | 33 | 32 | 39.3 µM | 34.3 | 30.7 µM | 31.5 | 60.1 | 33.9 | – | – | – | – | – | – | 51.3 | 34.2 | – | – | –
6 | O=NN(CCCl)C(=O)Nc1ccc(Cl)c(Cl)c1 | > 100 | > 100 | > 100 µM | > 100 | > 100 µM | 97.8 | > 100 | – | – | – | – | – | – | – | > 100 | > 100 | – | – | –
7 | COC[C@@H]1Cc2cc(OC)c3c(c2[C@H](c2ccc(OC)c(OC)c2)[C@H]1COC)OCO3 | 83.2 | > 100 | > 100 µM | > 100 | – | > 100 | > 100 | > 100 | – | – | – | – | – | – | – | – | – | – | –
8 | CCOC(=O)c1c(SC)nc(-c2ccc(Cl)cc2)sc1=N | 99.4 | > 100 | > 100 µM | 49 | > 100 µM | > 100 | > 100 | > 100 | – | – | – | – | – | – | 73.5 | 83.4 | – | – | –
9 | COc1cc(CCC(=O)O)c2cc3ccccc3cc2c1O | – | 31 | 31.7 µM | 32.3 | 29.7 µM | 88.3 | 99.5 | 42.6 | – | – | – | – | – | – | 80.7 | 34.4 | – | – | –
10 | O=C1CC(NCCCNC2CC(=O)c3c(Br)sc(Br)c32)c2c(Br)sc(Br)c21 (stereo not given) | 7.68 | > 35.8 | 4.77 µM | 4.21 | 12.7 µM | – | – | 4.39 | – | – | – | – | – | – | 5.64 | – | – | – | –
11 | CC(=O)C1=C(C)N(c2ccc(C)cc2)C2(O)C=CC(=O)C3=C(O)c4ccccc4C(=O)C312 (stereo not given) | 49.9 | 27.1 | 36.9 µM | 5.07 | 36 µM | > 100 | 30.8 | > 100 | – | – | – | – | – | – | > 100 | > 100 | – | – | –
12 | Nc1cccc(/C=C/CN2CCN(CCOC(c3ccccc3)c3ccccc3)CC2)c1 | 22.7 | 31.1 | 36 µM | 34.7 | 27.7 µM | 25.4 | 32.5 | 25.9 | – | – | – | – | – | – | 29.5 | 29.4 | – | – | –
13 | CC1C(O)[C@@]2(OC[C@@]34C(=O)CC5(O)[C@H](CCC6Cc7nc8c(nc7C[C@]65C)CC5CC[C@@H]6C7=C[C@H]9O[C@@]%10(O[C@@](C)(CO)C[C@@H]%10O)C(C)[C@@]9(O)[C@]7(C)[C@@H](O)CC6[C@]5(C)C8)C3=CC[C@H]4C2C)OC1(C)C (stereo not given in full) | 0.215 | 0.0212 | > 3.55 µM | 0.0275 | > 3.55 µM | 3.25 | 0.00105 | – | – | – | – | – | – | – | > 3.55 | 0.625 | – | – | –
14 | Cc1ccc(NC(=O)CC(=O)n2nc(-c3ccccc3)c(N=Nc3ccccc3C(=O)O)c2-c2ccccc2)cc1 | – | – | > 100 µM | > 100 | > 100 µM | > 100 | – | – | – | – | – | – | – | – | – | – | – | – | –
15 | COc1cccc2c1C(=O)c1c(O)c3c(c(O)c1C2=O)C[C@@](O)(C(C)=O)C[C@@H]3OC1CC(N(C)C)C(O)C(C)O1 (stereo not given in full) | – | – | 2.15 µM and 1.01 µM | – | 0.52 µM and 0.977 µM | – | – | – | 0.138 µM and 0.0219 µM | 0.0435 µM and < 0.0185 µM | 16.4 | < 0.0164 | 0.00454 µM and < 0.0147 µM | 0.0437 | 1.87 | 0.405 | 139 nM and 46.6 nM | – | –
16 | CN(CCNC(=O)c1cn(C)c2c1ccc1cc(Cl)ccc12)CCNC(=O)c1cn(C)c2c1ccc1cc(Cl)ccc12 | – | 67.4 | 3.37 µM | 4.85 | 3.68 µM | 18.8 | 14.5 | 3 | – | – | – | – | – | – | 3.6 | – | – | – | –

Row | Compound | TGI [1] [µM] | TGI [2] [µM] | TGI [3] | TGI [4] [µM] | TGI [5] | TGI [6] [µM] | TGI [7] [µM] | TGI [8] [µM] | GI50 [1] | GI50 [2] | GI50 [3] [nM] | GI50 [5] [µM] | GI50 [6] | GI50 [8] [µM] | TGI [9] [µM] | TGI [10] [µM] | GI50 [7] | GI50 [9] [µM] | GI50 [10] [µM]
17 | C[As](C)SCC(NC(=O)CCC(N)C(=O)O)C(=O)NCC(=O)O.Cl.c1ccncc1 (stereo not given) | 14.8 | 2.46 | 2.14 µM | 0.119 | 2.64 µM | 0.763 | 3.44 | 1.12 | – | – | – | – | – | – | 9.71 | 1.14 | – | – | –
18 | OCCSCc1cc(Cl)cc(Cl)c1O | – | > 100 | > 100 µM | > 100 | > 100 µM | > 100 | > 100 | > 100 | – | – | – | – | – | – | > 100 | > 100 | – | – | –
19 | O=C1CC(NC2CC(=O)c3c(Br)sc(Br)c32)c2c(Br)sc(Br)c21 (stereo not given) | 31.4 | 4.93 | 3.42 µM | 5.62 | > 78.1 µM | 21.5 | 32.6 | 11.9 | – | – | – | – | – | – | > 86.8 | 8.44 | – | – | –
20 | CCCCCCCCCCCCCCC(=O)NC(CCCCNC(=O)C1CCCN1C(=O)C(CCCCN)NC(=O)C(CCCCN)NC(=O)C(CCCCN)NC(=O)C(CCCNC(=N)N)NC(=O)C(CCCCN)NC(=O)C(N)C(C)C)C(=O)CN1CCCC1C(=O)NCC(=O)NC(Cc1ccccc1)C(=O)N1CCCC1C(=O)NC(CO)C(=O)NC(Cc1ccc(O)cc1)C(=O)NC(CCCCN)C(=O)NC(CC(C)C)C(=O)NC(CCCNC(=N)N)C(=O)N1CCCC1C(=O)NCC(N)=O (stereo not given) (I: GFPSYKLRPG-NH2 / II: H-VKRKKKP; linker I:N-II:C via X23; configuration not given here) | 76.7 | 53.8 | – | – | 97.1 µM | 65.1 | > 100 | 55.6 | 31.5 µM | 14 µM | – | 28.7 | 27 µM | 22.8 | 52.9 | 45.7 | 40500 nM | 19.6 | 15.4
21 | CC(C)(C)OC(=O)N1CCCC1C(=O)NCCNc1ccc(NCCNC(=O)C2CCCN2C(=O)OC(C)(C)C)c2c1C(=O)c1ccccc1C2=O (stereo not given) | 87.9 | 29.6 | – | 33 | 51.4 µM | 30.1 | – | 29.8 | – | – | – | – | – | – | 29.6 | 34.2 | – | – | –
22 | O=C1CSc2sc(=S)sc2S1 | > 100 | > 100 | > 100 µM | > 100 | > 100 µM | > 100 | > 78.6 | – | – | – | – | – | – | – | > 100 | > 100 | – | – | –
23 | COC1=CCC2=C(CCN(C(=O)C3CC3)C2Cc2ccc(OC)c(O)c2)C1 (stereo not given) | 67.4 | > 100 | > 100 µM | > 100 | > 100 µM | 96.9 | > 100 | > 100 | – | – | – | – | – | – | 55.4 | > 100 | – | – | –
24 | O=C(Nc1sccc1S(=O)(=O)c1ccc(Cl)cc1)c1ccc(Cl)cc1Cl | > 100 | > 100 | > 100 µM | > 100 | > 100 µM | > 100 | > 100 | > 100 | – | – | – | – | – | – | > 100 | > 100 | – | – | –
25 | CCSC1=C(C#N)C2(CCCCC2)C2=C(CC(C)(C)CC2=O)N1 | 71.1 | > 100 | > 100 µM | 78.2 | 73.2 µM | 43.1 | 64.6 | > 100 | – | – | – | – | – | – | > 100 | > 100 | – | – | –
26 | Cc1cc(O)c2cc3c(O)c(O)ccc3cc2c1 | 8.95 | 13.5 | 17.3 µM | 3.52 | 5.53 µM | > 22.8 | 16.1 | 20 | – | – | – | – | – | – | 5.89 | > 87 | – | – | –
27 | O=CNNC(=O)CSc1nc2ccc(I)cc2c(=O)n1Cc1ccccc1 | > 100 | 68.3 | 79.8 µM | – | > 100 µM | 63.3 | > 100 | > 100 | – | – | – | – | – | – | > 100 | > 100 | – | – | –
28 | O=S(=O)(c1ccccc1)[C@@H]1[C@H]2C=C[C@](CS)(O2)[C@H]1S(=O)(=O)c1ccccc1 | > 100 | > 100 | > 100 µM | > 100 | > 100 µM | > 100 | > 100 | > 100 | – | – | – | – | – | – | > 100 | > 100 | – | – | –
29 | NS(=O)(=O)c1ccc(N=Nc2ccc(O)c(O)c2)cc1 | 60.8 | 66.6 | 44.9 µM | 54.9 | 29.1 µM | 69.3 | > 100 | 65.2 | – | – | – | – | – | – | 73.2 | > 100 | – | – | –
30 | CC(=O)OCC1OC(N2C(=O)CC(N)=Nc3ccccc32)C(OC(C)=O)C(OC(C)=O)C1OC(C)=O (stereo not given) | > 100 | > 100 | > 100 µM | > 100 | > 100 µM | > 100 | > 100 | > 100 | – | – | – | – | – | – | > 100 | > 100 | – | – | –
31 | Clc1ccc(/C=C/c2nc(-c3ccc(Cl)cc3)cn3c2nc2ccccc23)cc1 | – | > 100 | > 100 µM | > 100 | > 100 µM | > 100 | > 100 | > 100 | – | – | – | – | – | – | > 100 | > 100 | – | – | –
